Measured values reported in patent US20250368627A1, “PYRAZOLESULFONAMIDES AS ANTITUMOR AGENTS” (Peloton Therapeutics, Inc., a fully owned subsidiary of …, priority 2019, published 2025).

Assays:
[1] = tested on: HCT116 human colorectal carcinoma cells; assay: CellTiter-Glo Luminescent Cell Viability Assay; assay type: cell-based; conditions: HCT-116, 72 h, 3 days
Procedure: HCT116 human colorectal carcinoma cells were used in these experiments. HCT116 cells were obtained from ATCC. CellTiter-Glo® Luminescent Cell Viability Assay Reagent was obtained from Promega.
About 3,000 cells were seeded into 96-well plate with […] of media (DMEM supplemented with 10% FBS, 100 units penicillin, and […] streptomycin per mL) the day before the experiment. For compound treatment, the master plate was prepared as follows: 100× compound stocks were prepared in a 96-well plate by 1 to 3 serial dilutions of 0.5 mM DMSO stocks. Each master plate contained serial dilution of 8 compounds, including the control compound E7820. […] of 100× compound stock was added to each well of the assay plate to give final concentrations of […]. Each concentration was tested in triplicate. After 3 days, cell viability was determined using CellTiter-Glo Luminescent Cell Viability Assay Reagent following the manufacturer's recommended protocol. Briefly, […] of CellTiter-Glo reagent was added to each well of the assay plate and the contents were mixed for 3 minutes at 600 rpm on a shaker (Thermomixer R). The plate was immediately placed in a plate reader (Synergy 2) and the luminescence signal (0.5 second per well integration time) was determined. IC50 values were calculated using Dotmatics software.

[2] = target: T1, DDB1DB/DCAF15 and RBM39 R1R2 complex (Homo sapiens, UniProt Q14498+Q66K64); assay: DCAF15 RBM39 Complex Formation Assay (FRET); assay type: binding; conditions: FRET ratio Em 665/Em 615, incubated overnight at 4° C.
T1 construct: Amino acids 150 to 331 of RBM39 were cloned into pGEX4T3; GST (from vector pGEX4T3); TEV cleavage site (N); made in house; host or cells: DDB1DB/His-DCAF15: baculovirus/Sf9 co-expression; RBM39 R1R2: E. coli (pGEX4T3)
From the text: LANCE Eu-W1024 Anti-6×His and SureLight Allophycocyanin-anti-FLAG antibodies were purchased from Perkin Elmer. Human DDB1DB and His-tagged DCAF15 were co-expressed in baculovirus/sf9 system. While full length DDB1 contains three 7-bladed propellers termed A, B, and C, DDB1DB has only propeller A (amino acids 1 to 395) and C (amino acids 709-1140). The His-tagged DCAF15 contains six histidine residues directly preceding the DCAF15 sequence without any linker. An RBM39 fragment containing RRM1 and RRM2 was expressed in E. coli. Amino acids 150 to 331 of RBM39 were cloned into pGEX4T3 with an N-terminal TEV cleavage site and a C-terminal FLAG tag.
A compound of the present disclosure in DMSO (2 μL) was transferred to a 384-well assay plate. Compound was added in 14 points, 3-fold serial dilution (1 μM to 0.6 pico molar) in DMSO. […] FRET assay buffer (25 mM HEPES, pH 7.5, 100 mM NaCl, […], 0.5 mM TCEP, 0.005% Tween-20, 0.2 nM Eu—W1024 Anti-6×His, 50 nM SureLight Allophycocyanin-anti-FLAG, 20 nM DDB1DB/DCAF15, 50 nM RBM39 R1R2) was added and the resulting solution was incubated overnight at 4° C. The plate was placed in a plate reader (Spark 10) with excitation at 1=340 nm and emissions monitored at 1=665 nm and 1=615 nm, and the FRET ratio (Em 665/Em 615) was determined. Low signal controls containing no compound and high signal controls containing 10 mM indisulam were measured for each plate.
EC50 values were calculated using Dotmatics template equation for 4-parameter fit. Results are expressed as % formation using the following equation: […]

T1 sequence (Q66K64 whole entry, the tested form may be a part): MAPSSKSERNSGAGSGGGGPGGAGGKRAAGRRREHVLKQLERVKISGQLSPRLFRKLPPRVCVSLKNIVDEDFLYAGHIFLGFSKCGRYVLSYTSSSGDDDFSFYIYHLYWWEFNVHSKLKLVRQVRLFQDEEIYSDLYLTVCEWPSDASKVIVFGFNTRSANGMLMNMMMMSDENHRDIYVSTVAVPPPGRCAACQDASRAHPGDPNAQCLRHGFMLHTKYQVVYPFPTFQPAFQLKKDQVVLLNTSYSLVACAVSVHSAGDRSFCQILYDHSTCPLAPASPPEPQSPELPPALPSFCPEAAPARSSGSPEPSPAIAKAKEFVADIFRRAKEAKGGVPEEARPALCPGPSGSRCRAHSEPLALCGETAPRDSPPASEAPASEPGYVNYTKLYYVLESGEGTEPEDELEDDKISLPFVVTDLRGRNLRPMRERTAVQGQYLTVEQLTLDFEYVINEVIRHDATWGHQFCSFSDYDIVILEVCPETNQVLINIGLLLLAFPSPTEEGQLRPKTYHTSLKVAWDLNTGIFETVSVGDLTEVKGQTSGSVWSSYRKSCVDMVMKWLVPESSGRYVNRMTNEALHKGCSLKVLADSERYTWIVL
T1 sequence (Q14498 150-331): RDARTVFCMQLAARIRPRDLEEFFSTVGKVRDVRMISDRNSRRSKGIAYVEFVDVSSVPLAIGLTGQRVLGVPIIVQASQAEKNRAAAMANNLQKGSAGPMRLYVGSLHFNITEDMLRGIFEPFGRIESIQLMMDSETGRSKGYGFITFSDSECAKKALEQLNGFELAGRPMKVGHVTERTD
T1 sequence (Q16531 with tags, fused parts or gaps DEL396-708 partner): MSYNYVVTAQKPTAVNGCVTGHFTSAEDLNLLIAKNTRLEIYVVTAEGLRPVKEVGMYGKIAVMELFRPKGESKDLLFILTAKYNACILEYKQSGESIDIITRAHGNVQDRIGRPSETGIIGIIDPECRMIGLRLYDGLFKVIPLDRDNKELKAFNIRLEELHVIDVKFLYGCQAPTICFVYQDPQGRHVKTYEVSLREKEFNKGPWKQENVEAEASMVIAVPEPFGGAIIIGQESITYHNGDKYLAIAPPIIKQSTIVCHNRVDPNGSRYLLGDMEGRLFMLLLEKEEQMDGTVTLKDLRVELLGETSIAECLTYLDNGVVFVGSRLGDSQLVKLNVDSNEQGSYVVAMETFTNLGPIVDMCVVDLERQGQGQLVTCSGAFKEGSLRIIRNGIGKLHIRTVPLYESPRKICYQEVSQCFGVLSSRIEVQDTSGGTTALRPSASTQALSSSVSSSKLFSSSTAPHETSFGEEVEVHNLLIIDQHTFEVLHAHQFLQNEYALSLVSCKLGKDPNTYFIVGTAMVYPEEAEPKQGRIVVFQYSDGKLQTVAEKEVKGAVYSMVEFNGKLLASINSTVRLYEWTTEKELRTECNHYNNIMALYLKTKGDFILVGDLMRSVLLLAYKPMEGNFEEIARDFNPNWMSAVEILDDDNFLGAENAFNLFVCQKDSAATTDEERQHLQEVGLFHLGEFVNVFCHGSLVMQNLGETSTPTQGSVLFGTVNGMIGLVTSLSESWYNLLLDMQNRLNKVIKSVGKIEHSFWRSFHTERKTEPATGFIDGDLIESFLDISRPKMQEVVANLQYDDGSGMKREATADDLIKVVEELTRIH

SMILES	EC50 [1] [µM]	IC50 [2] [µM]
COCC(CO)n1cc(S(=O)(=O)Nc2ccc(Cl)c3c(C#N)c[nH]c23)cn1 (centres unmarked) [Compound 262, N-(4-chloro-3-cyano-1H-indol-7-yl)-1-[1-(hydroxymethyl)-2-methoxy-ethyl]pyrazole-4-sulfonamide]	0.25 to 1	< 0.25
Cc1ccc(NS(=O)(=O)c2cnn(CC(C)(C)CO)c2)c2[nH]cc(C#N)c12 [Compound 258, N-(3-cyano-4-methyl-1H-indol-7-yl)-1-(3-hydroxy-2,2-dimethylpropyl)-1H-pyrazole-4-sulfonamide]	< 0.25	< 0.25
N#Cc1c[nH]c2c(NS(=O)(=O)c3cnn(C45CC(C4)C5)c3)ccc(Cl)c12 [Compound 223, 1-(3-bicyclo[1.1.1]pentanyl)-N-(4-chloro-3-cyano-1H-indol-7-yl)pyrazole-4-sulfonamide]	0.25 to 1	< 0.25
Cc1ccc(NS(=O)(=O)c2cnn(CC(F)F)c2)c2[nH]cc(C#N)c12 [Compound 66, N-(3-cyano-4-methyl-1H-indol-7-yl)-1-(2,2-difluoroethyl)pyrazole-4-sulfonamide]	< 0.25	< 0.25
O=S(=O)(Nc1cccc2c(Cl)c[nH]c12)c1cnn(CC(F)F)c1 [Compound 7, N-(3-chloro-1H-indol-7-yl)-1-(2,2-difluoroethyl)pyrazole-4-sulfonamide]	0.25 to 1	< 0.25
C[C@@H](CO)n1cc(S(=O)(=O)Nc2ccc(Cl)c3c(C#N)c[nH]c23)cn1 [Compound 266, N-(4-chloro-3-cyano-1H-indol-7-yl)-1-[(1S)-2-hydroxy-1-methyl-ethyl]pyrazole-4-sulfonamide]	0.25 to 1	< 0.25
Cc1ccc(NS(=O)(=O)c2cnn(C)c2C(F)F)c2[nH]cc(C#N)c12 [Compound 149, N-(3-cyano-4-methyl-1H-indol-7-yl)-5-(difluoromethyl)-1-methyl-pyrazole-4-sulfonamide]	0.25 to 1	< 0.25
Cc1ccc(NS(=O)(=O)c2cnn([C@@H](C)[C@@H](C)O)c2)c2[nH]cc(C#N)c12 [Compound 234, N-(3-cyano-4-methyl-1H-indol-7-yl)-1-[(1S,2R)-2-hydroxy-1-methyl-propyl]pyrazole-4-sulfonamide]	< 0.25	< 0.25
CC1(n2cc(S(=O)(=O)Nc3ccc(Cl)c4c(C#N)c[nH]c34)cn2)COC1 [Compound 118, N-(4-chloro-3-cyano-1H-indol-7-yl)-1-(3-methyloxetan-3-yl)pyrazole-4-sulfonamide]	< 0.25	< 0.25
Cc1ccc(NS(=O)(=O)c2cnn([C@H](C)[C@H](C)O)c2)c2[nH]cc(C#N)c12 [Compound 274, N-(3-cyano-4-methyl-1H-indol-7-yl)-1-[(1R,2S)-2-hydroxy-1-methyl-propyl]pyrazole-4-sulfonamide]	< 0.25	< 0.25
N#Cc1c[nH]c2c(NS(=O)(=O)c3c[nH]nc3N)ccc(Cl)c12 [Compound 296, 3-amino-N-(4-chloro-3-cyano-1H-indol-7-yl)-1H-pyrazole-4-sulfonamide]	> 1	< 0.25
O=S(=O)(Nc1cccc2c(Cl)c[nH]c12)c1cnn(CCF)c1 [Compound 35, N-(3-chloro-1H-indol-7-yl)-1-(2-fluoroethyl)pyrazole-4-sulfonamide]	0.25 to 1	< 0.25
N#Cc1c[nH]c2c(NS(=O)(=O)c3cnn([C@H](CO)CF)c3)ccc(Cl)c12 [Compound 311, N-(4-chloro-3-cyano-1H-indol-7-yl)-1-[(1R)-1-(fluoromethyl)-2-hydroxy-ethyl]pyrazole-4-sulfonamide]	0.25 to 1	< 0.25
Cc1ccc(NS(=O)(=O)c2cnn(C[C@H](N)C(F)(F)F)c2)c2[nH]cc(C#N)c12 [Compound 249, 1-[(2S)-2-amino-3,3,3-trifluoro-propyl]-N-(3-cyano-4-methyl-1H-indol-7-yl)pyrazole-4-sulfonamide]	0.25 to 1	< 0.25
O=S(=O)(Nc1cccc2c(Cl)c[nH]c12)c1cnn(-c2ccc(C(F)(F)F)cn2)c1 [Compound 30, N-(3-chloro-1H-indol-7-yl)-1-[5-(trifluoromethyl)-2-pyridyl]pyrazole-4-sulfonamide]	> 1	> 1
Cn1cc(S(=O)(=O)Nc2ccc(F)c3c(C#N)c[nH]c23)cn1 [Compound 65, N-(3-cyano-4-fluoro-1H-indol-7-yl)-1-methyl-pyrazole-4-sulfonamide]	0.25 to 1	< 0.25
COC(Cn1cc(S(=O)(=O)Nc2cccc3c(Cl)c[nH]c23)cn1)OC [Compound 32, N-(3-chloro-1H-indol-7-yl)-1-(2,2-dimethoxyethyl)pyrazole-4-sulfonamide]	0.25 to 1	< 0.25
O=S(=O)(Nc1cccc2c(Cl)c[nH]c12)c1cnn(C2CCC2)c1 [Compound 47, N-(3-chloro-1H-indol-7-yl)-1-cyclobutyl-pyrazole-4-sulfonamide]	0.25 to 1	< 0.25
COC(=O)C(C)(C)n1cc(S(=O)(=O)Nc2ccc(Cl)c3c(Cl)c[nH]c23)cn1 [Compound 168, methyl 2-[4-[3,4-dichloro-1H-indol-7-yl)sulfamoyl]pyrazol-1-yl]-2-methyl-propanoate]	0.25 to 1	< 0.25
CC(C)(CO)n1cc(S(=O)(=O)Nc2ccc(Cl)c3c(C#N)c[nH]c23)cn1 [Compound 171, N-(4-chloro-3-cyano-1H-indol-7-yl)-1-(2-hydroxy-1,1-dimethyl-ethyl)pyrazole-4-sulfonamide]	< 0.25	< 0.25
Cc1ccc(NS(=O)(=O)c2cnn(CCF)c2)c2[nH]cc(C#N)c12 [Compound 36, N-(3-cyano-4-methyl-1H-indol-7-yl)-1-(2-fluoroethyl)pyrazole-4-sulfonamide]	< 0.25	< 0.25
CC(C)(CO)n1ncc(S(=O)(=O)Nc2cccc3c(C#N)c[nH]c23)c1Cl [Compound 251, 5-chloro-N-(3-cyano-1H-indol-7-yl)-1-(2-hydroxy-1,1-dimethyl-ethyl)pyrazole-4-sulfonamide]	0.25 to 1	< 0.25
Cc1ccc(NS(=O)(=O)c2cnn(C)c2)c2[nH]cc(Cl)c12 [Compound 75, N-(3-chloro-4-methyl-1H-indol-7-yl)-1-methyl-pyrazole-4-sulfonamide]	< 0.25	< 0.25
C[C@H](O)[C@@H](C)n1cc(S(=O)(=O)Nc2ccc(Cl)c3c(C#N)c[nH]c23)cn1 [Compound 275, N-(4-chloro-3-cyano-1H-indol-7-yl)-1-[(1R,2S)-2-hydroxy-1-methyl-propyl]pyrazole-4-sulfonamide]	0.25 to 1	< 0.25
N#Cc1c[nH]c2c(NS(=O)(=O)c3cnn(CC(F)F)c3)ccc(Cl)c12 [Compound 91, N-(4-chloro-3-cyano-1H-indol-7-yl)-1-(2,2-difluoroethyl)pyrazole-4-sulfonamide]	0.25 to 1	< 0.25
Cc1ccc(NS(=O)(=O)c2cnn(C3CC(F)C3)c2)c2[nH]cc(C#N)c12 (centres unmarked) [Compound 111, N-(3-cyano-4-methyl-1H-indol-7-yl)-1-(3-fluorocyclobutyl)pyrazole-4-sulfonamide]	0.25 to 1	< 0.25
Cc1ccc(NS(=O)(=O)c2cnn(C3(C)COC3)c2F)c2[nH]cc(C#N)c12 [Compound 128, N-(3-cyano-4-methyl-1H-indol-7-yl)-5-fluoro-1-(3-methyloxetan-3-yl)pyrazole-4-sulfonamide]	< 0.25	< 0.25
N#Cc1c[nH]c2c(NS(=O)(=O)c3cnn([C@H]4C[C@@H](O)C4)c3)ccc(Cl)c12 [Compound 174, N-(4-chloro-3-cyano-1H-indol-7-yl)-1-(3-hydroxycyclobutyl)pyrazole-4-sulfonamide]	0.25 to 1	< 0.25
